Data taken from patent publication US20220273007A1, “FUNCTIONAL FOOD FOR PREVENTING OR IMPROVING DYSURIA” (MARUHACHI MURAMATSU, INC., priority 2019, published 2022).

Experiments:
[1] = test system: acetic-acid-induced pollakiuria model rats; assay: In vivo assay (cystometry) using acetic-acid-induced pollakiuria model rats; set-up: species or system rat; details: 0.5 mg/kg oral (MC solution)
Protocol: In this experiment, 0.1% acetic acid diluted with normal saline was directly injected into the bladders of urethane-anesthetized rats to induce bladder hypersensitivity and create model rats having symptoms of acute (or chronic) pollakiuria, and in vivo assays were performed using these acetic-acid-induced pollakiuria model rats. […] In this way, the effects of the 95% ethanol extract of akamoku upon pollakiuric states in rats were investigated.
control (vehicle)=0.5% methyl cellulose (MC); and akamoku extract=50 mg/mL MC solution of akamoku extract.
• Maximum intravesical pressure (voiding pressure) • Base pressure • Threshold pressure • Voiding interval • Volume per void
Using the model rats with symptoms of acute (chronic) pollakiuria created in experiment 13, a 50 mg/mL MC solution of 50% ethanol extract of akamoku was orally administered to the model rats (n=7). In the graphs in FIG. 18, measured parameters are the voiding intervals, volume per void, and voiding frequency per unit of time of the rats, and pollakiuria-symptomatic model rats are compared with control rats receiving 0.5% methyl cellulose (MC) solution. In this way, the effects of the 50% ethanol extract of akamoku upon pollakiuric states in rats are investigated.
Using the model rats with symptoms of acute (chronic) pollakiuria created in experiment 13, a 50 mg/mL aqueous solution of aqueous akamoku extract was orally administered to the model rats. In the graphs in FIG. 19, measured parameters are the voiding intervals, volume per void, and voiding frequency per unit of time of the rats, compared with control rats receiving ultrapure water. In this way, the effects of the aqueous akamoku extract upon pollakiuric states in rats are investigated.
Using the model rats with symptoms of acute (chronic) pollakiuria created in experiment 13, 0.5 mg/kg akamoku-derived fucoxanthin Fx (MC solution) was orally administered to the model rats. […] In the graphs in FIG. 20, measured parameters are the voiding intervals, volume per void, and voiding frequency per unit of time of the rats, compared with control rats receiving 0.5% methyl cellulose (MC) solution.

[2] = test system: rat bladder smooth muscle; assay: Organ bath assay: 80 mM KCl contractile inhibition assay
Protocol: The concentration of each fatty acid was set according to the amount thereof present in a 95% ethanol extract of akamoku (Japan Food Research Laboratories; JFRL quantitative analysis). […] Ethanol was used as a control. As in the example described above, 80 mM KCl, a contraction inducer, was also added to induce contraction. The tension (contractile force) of slices of rat bladder smooth muscle was then measured to evaluate contraction inhibition effects. […]
The maximum concentration of each fatty acid was set according to the amount thereof present in a 95% ethanol extract of akamoku (JFRL quantitative analysis). Concentrations of 7.1 μg/mL EPA, 21.3 μg/mL EPA, 71 μg/mL EPA, 4.7 μg/mL stearidonic acid, 14.1 μg/mL stearidonic acid, and 47 μg/mL stearidonic acid were set. As in the examples described above, 80 mM KCl, a contraction inducer, was also added to induce contraction. The tension (contractile force) of slices of rat bladder smooth muscle was then measured to evaluate contraction inhibition effects.

CC(=O)O[C@H]1CC(C)(C)C(=C=C/C(C)=C/C=C/C(C)=C/C=C/C=C(C)/C=C/C=C(\C)C(=O)C[C@@]23O[C@]2(C)C[C@@H](O)CC3(C)C)[C@](C)(O)C1 [akamoku-derived fucoxanthin, fucoxanthin]
improvement in 0.1% acetic-acid-induced pollakiuria [1]: significant improvement
voiding frequency per unit of time [1]: decreased
voiding interval [1]: tended to increase
volume per void [1]: increased

CC/C=C\C/C=C\C/C=C\CCCCCCCC(=O)O [α-linolenic acid]
activity at 36 µg/mL ([2]; Rattus norvegicus, 36 μg/mL, 80 mM KCl, read-out: average contraction compared to 100% uninhibited contraction): 86.8%

CC/C=C\C/C=C\C/C=C\C/C=C\C/C=C\CCCC(=O)O [EPA, eicosapentaenoic acid]
average contraction compared to 100% uninhibited contraction ([2]; 71 μg/mL, 80 mM KCl): 73.3%
activity at 7.1 µg/mL ([2]; Rattus norvegicus, 7.1 μg/mL, 80 mM KCl, read-out: average contraction compared to 100% uninhibited contraction): 91.1%
activity at 21.3 µg/mL ([2]; Rattus norvegicus, 21.3 μg/mL, 80 mM KCl, read-out: average contraction compared to 100% uninhibited contraction): 87.2%
activity at 71 µg/mL ([2]; Rattus norvegicus, 71 μg/mL, 80 mM KCl, read-out: average contraction compared to 100% uninhibited contraction): 78.2%

CCCCC/C=C\C/C=C\C/C=C\C/C=C\CCCC(=O)O [arachidonic acid]
activity at 44 µg/mL ([2]; Rattus norvegicus, 44 μg/mL, 80 mM KCl, read-out: average contraction compared to 100% uninhibited contraction): 82%

CC/C=C\C/C=C\C/C=C\C/C=C\CCCCC(=O)O [stearidonic acid]
average contraction compared to 100% uninhibited contraction ([2]; 47 μg/mL, 80 mM KCl): 75.6%
activity at 4.7 µg/mL ([2]; Rattus norvegicus, 4.7 μg/mL, 80 mM KCl, read-out: average contraction compared to 100% uninhibited contraction): 87.8%
activity at 14.1 µg/mL ([2]; Rattus norvegicus, 14.1 μg/mL, 80 mM KCl, read-out: average contraction compared to 100% uninhibited contraction): 89.5%
activity at 47 µg/mL ([2]; Rattus norvegicus, 47 μg/mL, 80 mM KCl, read-out: average contraction compared to 100% uninhibited contraction): 68.5%
inhibition of 80 mM KCl contraction ([2]; fatty acid at amount present in 95% ethanol extract of akamoku (EPA 71 μg/mL, stearidonic acid 47 μg/mL)): significantly inhibited contraction
